# Experimental data published in ChEMBL document CHEMBL6153057, “Novel Imidazotriazine Derivatives as IL-17 Modulators for Treating Inflammatory and Autoimmune Disorders” (ACS Med Chem Lett, 2025).
# Experiment: Antiinflammatory activity in human HDF cells assessed as inhibition of IL-17A/TNF-alpha-stimulated IL-6 release preincubated for 5 hrs followed by IL-17A/TNF-alpha stimulation and measured after 18 to 20 hrs by homogenous time-resolved FRET based assay
# Assay type: functional, cell-based
row,IC50 [µM],Structure (SMILES)
1,0.00398,[2H]C([2H])([2H])O[C@@H]1CCN(C(=O)[C@@H]2CCC(F)(F)CO2)[C@H](c2cnn3cc([C@@H](NC(=O)c4ccnn4C)C4CCC(F)(F)CC4)nc3n2)C1
2,0.00316,CO[C@@H]1CCN(C(=O)[C@@H]2CCC(F)(F)CO2)[C@H](c2cnn3cc([C@@H](NC(=O)c4ccnn4C)C4CCC(F)(F)CC4)nc3n2)C1
3,0.0398,CO[C@@H]1CCN(C(=O)[C@@H]2CCC(F)(F)CO2)[C@@H](c2cnn3cc([C@@H](NC(=O)c4ccnn4C)C4CCC(F)(F)CC4)nc3n2)C1
4,0.0398,[2H]C([2H])([2H])O[C@@H]1CCN(C(=O)[C@@H]2CCC(F)(F)CO2)[C@@H](c2cnn3cc([C@@H](NC(=O)c4ccnn4C)C4CCC(F)(F)CC4)nc3n2)C1
